Reference: patent US20130123201A1, “MODULATION OF CYTOKINE-INDUCED CHRONIC INFLAMMATORY RESPONSES” (UNIVERSITY OF MANITOBA, priority 2010, published 2013)
Several values for one entry are separate records, joined by “and”; a condition that tells them apart may be missing. Equal entries are not always repeated. Entries after “also recorded” stand apart in the source; their conditions may differ.

Legend:
[1] = tested on: NF-κB in rabbit synoviocyte HIG-82 cells; assay: NF-κB-reporter luminescence assay; type: cell-based; conditions: rabbit synovial fibroblast cell line HIG-82, 4 and 6 hr
Procedure: NF-κB-reporter luminensence assay: Rabbit synoviocyte HIG-82 cells were transiently transfected with pNFκB-MetLuc2-Reporter Vector (Clontech laboratories Inc., Mountain View, Calif., USA) or the provided control vector as per the manufacturer's instructions. Various stimulants were added to the transfected cells in culture media containing 1% (v/v) FBS. The cells were stimulated with either recombinant human IL-32 or IL-17, and in parallel with known activators of NF-κB such as pro-inflammatory recombinant human cytokines TNF-αand IL-1β, or bacterial lipopolysaccharide (LPS), for 4 or 6 hr. The activation of NF-κB was monitored by employing the Ready-To-Glow Secreted NF-κB Luciferase Reporter Assay (Clontech) as per the manufacturer's instructions.
NF-κB-reporter luminensence assay: In order to monitor direct NF-κB activation in synoviocytes, a rabbit synoviocyte cell line, HIG-82 (ATCC® CRL-1832) was transiently transfected with pNFκB-MetLuc2-Reporter Vector (Clontech laboratories Inc., Mountain View, Calif., USA) or the provided control vector as per the manufacturer's instructions. Various stimulants were added to the transfected cells in culture media containing 1% (v/v) FBS. […] The activation of NF-κB was monitored by employing the Ready-To-Glow Secreted NF-κB Luciferase Reporter Assay (Clontech Laboratories Inc.) per the manufacturer's instructions.

[2] = tested on: Human macrophage-like THP-1 cells; assay: Kinome profiling with peptide arrays of kinase phosphorylation targets; type: cell-based; conditions: cytokine 20 ng/mL, 15 min, relative to un-stimulated control cells
Procedure: Kinome profiling: Human monocytic THP-1 cells were differentiated to plastic-adherent macrophage-like cells by treatment with PMA as described above, the cells were rested for 24 hr and then stimulated with either IL-32 (20 ng/mL) or IL-17 (20 ng/mL) for 15 min.
Subsequently, cellular lysates were prepared in lysis buffer (containing 20 mM Tris-HCl pH 7.5, 150 mM NaCl, 1 mM EDTA, 1 mM EGTA, 1 mM sodium fluoride, 1 mM sodium orthovanadate, 2.5 mM sodium pyrophosphate, protease inhibitor cocktail (Sigma-Aldrich) and 1% (v/v) Triton X-100, as taught by Jalal et al. (2009, Genome to kinome: species-specific peptide arrays for kinome analysis. Sci. Signal 2:11). Peptide arrays representing phosphorylation targets of kinase activity were incubated with the cellular lysates for quantifying global kinase activity following the methods disclosed by Jalal et al. (2009). The trends of protein phosphorylation events upon stimulation with IL-32 and IL-17 were comprehensively analysed after normalization and background correction of signal strength following the methods disclosed by Jalal et al. (2009). The phosphorylations of the peptides on the array were quantitated in the cytokine-treated cells relative to the un-stimulated control cells.
Kinome profiling: Human macrophage-like THP-1 cells were differentiated to plastic-adherent macrophage-like cells by treatment with PMA as described above, after which the cells were rested for 24 hr and then stimulated with either IL-32 (20 ng/mL) or IL-17 (20 ng/mL) for 15 min. Subsequently, cellular lysates were prepared in lysis buffer (containing 20mM Tris-HCl pH 7.5, 150 mM NaCl, 1 mM EDTA, 1 mM EGTA, 1 mM sodium fluoride, 1 mM sodium orthovanadate, 2.5 mM sodium pyrophosphate, protease inhibitor cocktail (Sigma-Aldrich Canada Inc.) and 1% (v/v) Triton X-100, as taught by Mookherjee et al. (2006). Peptide arrays representing phosphorylation targets of kinase activity were incubated with the cellular lysates for quantifying global kinase activity as taught by Jalal et al. (2009, Genome to kinome: species-specific peptide arrays for kinome analysis. Sci. Signal 2:11). The trends of protein phosphorylation events upon stimulation with IL-32 and IL-17 were comprehensively analysed after normalization and background correction of signal strength as taught by Jalal et al. (2009). The phosphorylations of the peptides on the array were quantitated in the cytokine-treated cells relative to the un-stimulated control cells.
Differential phosphorylation events in THP-1 cells stimulated by IL-32 and IL-17: THP-1 cells were stimulated with either IL-17 (20 ng/ml) or IL-32 (20 ng/ml) for 15 min. The cellular lysates were incubated with peptide arrays representing phosphorylation targets of kinase activity for quantifying global kinase activity as previously described. The phosphorylation of the peptides on the array were quantitated in the cytokine-treated cells relative to the un-stimulated control cells after normalization and background correction of signal strength taught by Jalal et al. (2009).

Substance: IL-17: Recombinant human cytokine IL-17A/F from eBioscience, used as stimulant
- Activation of transcription factor NF-κB [1]: induced direct activation; also recorded: activated
- Relative Fold change in phosphorylation, APE1 (P27695) S289 [2]: 1.52 fold and 1.28 fold
- Relative Fold change in phosphorylation, Akt1 (P31749) S124/9 [2]: −3.27 fold
- Relative Fold change in phosphorylation, CCR5 (P51681) S336/7 [2]: −2.62 fold
- Relative Fold change in phosphorylation, CTNNB1 (P35222) T41/45 [2]: −4.12 fold
- Relative Fold change in phosphorylation, DAPK1 (P53355) S308 [2]: 2.19 fold and 1.45 fold
- Relative Fold change in phosphorylation, Daxx (Q9UER7) S668/71 [2]: −3.45 fold
- Relative Fold change in phosphorylation, Grb10 (Q13322) S150 [2]: −1.86 fold
- Relative Fold change in phosphorylation, Kit (P10721) Y721 [2]: −1.75 fold
- Relative Fold change in phosphorylation, NFAT4 (Q12968) S163/5 [2]: −2.22 fold
- Relative Fold change in phosphorylation, PKACa (P17612) S338 [2]: −1.64 fold
- Relative Fold change in phosphorylation, STAT6 (P42226) Y641 [2]: −1.94 fold
- Relative Fold change in phosphorylation, Smad3 (P84022) S422/3/5 [2]: −2.37 fold
- Relative Fold change in phosphorylation, TAK1 (O43318) T184 [2]: −2.01 fold
- Relative Fold change in phosphorylation, axin-1 (O15169) S486 [2]: −3.73 fold
- Relative Fold change in phosphorylation, p53 (P04637) S6/9 [2]: −2.43 fold
- Relative Fold change in phosphorylation, p300 (Q09472) S1834 [2]: 1.92 fold and 1.71 fold
